In patent US5624924A, “Quinobenzothiazine antineoplastic agents” (priority 1994, dated 1997):
Values after ≈ are worked out from the molar mass of the structure shown. Where a name gives a salt, the structure may show the parent alone.

Key:
[1] = system: P388-ADR(0.0), ADRIAMYCIN-resistant variant of P388; experiment: In vitro cytotoxicity (MTT), P388-ADR(0.0); assay type: cell-based; conditions: Mus musculus, 72 h, inoculum grown in drug-free medium, Table 2
Method: (§1) Metabolic activity was measured by the cells' ability to reduce the tetrazolium dye, 3-(4,5-dimethylthiazol-2-yl)-2,5-diphenyltetrazolium bromide (MTT), to a quantifiable colored formasan derivative. Surviving cells reduce the MTT dye. The inhibitory concentrations of killing 50% of the cells (IC50 s) were calculated. Testing was in accord with the following protocol:
(§2) Test compounds and a reference antineoplastic agent, ADRIAMYCIN (doxorubicin hydrochloride), were dissolved in dimethyl sulfoxide (DMSO) and diluted, first with Earle's Balanced Salt Solution, followed by culture medium, to twice the highest concentration of the compound to be tested. From this concentrated stock, two-fold serial dilutions were prepared in 96-well microtiter trays, each well containing twice the desired final concentration of the compound. Each concentration was tested in triplicate and compared to triplicate drug-free controls.
(§3) The cells were grown in the same medium used for diluting the compounds. Adherent cells were harvested by trypsinization according to the following procedure:
(§4) After harvesting by trypsinization, viable cell counts were determined and cell density was adjusted to 25,000 cells/mL. Inoculum (0.1 mL) was then added to each well for a final concentration of 2,500 cells per well. Addition of the inoculum was used to dilute the test compounds to the desired concentration.
(§5) Microtiter trays were incubated for three days at 36° C. in a humidified atmosphere containing 5% carbon dioxide.
(§6) After three days, 20 microliters of 5 mg/mL MTT in phosphate-buffered solution were added to each well of the microtiter trays. The microtiter trays were then returned to the incubator for two to four hours to allow the surviving cells to reduce the dye. After this incubation, both the medium and the unreduced dye were removed by aspiration. DMSO was added to each well to dissolve the water-insoluble, colored end product of the dye reduction for spectrophotometric measurement at 570 nm.
(§7) Compounds from Examples 4, 6, 8, 9 and 10 were additionally tested against human and murine tumor cell lines A549, HT-29, P388-D1, P388, P388-ADR(0.0), P388-ADR(0.1) and B16F109. (P388 is a mouse leukemia cell line similar to P388-D1, but animal-passaged; P388-ADR (0.0) is an ADRIAMYCIN-resistant variant of P388, the inoculum of which is grown in drug-free medium; P388-ADR (0.1) is an ADRIAMYCIN-resistant variant of P388, the inoculum of which is grown in medium with 0.1 mcg.ml ADRIAMYCIN; and B16F10 is a mouse melanoma.) The results are presented in Table 2; as shown in the table, the compounds of the present invention are effective cytotoxic agents even against the ADRIAMYCIN-resistant cell line P388-ADR.

P388 ascitic leukemia = experiment: In vivo activity against systemic tumor P388; set-up: species or system mouse; conditions: five days
Method: Prior to testing, P388 was propagated intraperitoneally in female DBA2 mice. The ascitic tumors were intraperitoneally injected in female B6 D2 F1 mice at a concentration of 10^6 cells per mouse. The mice were treated with antiumor agents administered once daily for five consecutive days, with the antineoplastic 5-fluorouracil used as a positive control.
All drugs were administered intraperitoneally in 5% aqueous dextrose or other suitable diluent. Drug efficacy was evaluated based on prolongation of mean survival time (MST). Improvement of MST was calculated as % MST(T/C), the percent ratio of mean survival times of test (T) versus control (C) mice. Compounds having % MST(T/C) values greater than 125 are considered to have significant activity. The antitumor activity of the two compounds in the P388 systemic leukemia model is illustrated in Table 3 below.

Aqueous solubility = assay type: physicochemical; conditions: water
Description: The effect of peptidyl substitution on the solubility of the compounds of the invention was examined by dissolving samples thereof in water.

B16F10 mouse melanoma = experiment: In vitro cytotoxicity (MTT), B16F10; assay type: cell-based; conditions: B16-F10, 72 h, read-out: In Vitro Cytotoxicity (IC50)
Method: as §1, §2, §3, §4, §5, §6, §7

[2] = system: A549 human lung cancer cell line; experiment: In vitro cytotoxicity (MTT), A549; assay type: cell-based; conditions: A549, 72 h, read-out: In Vitro Cytotoxicity (IC50), A549, Table 2, ADR: average of two tests
Method: as §1, §2, §3, §4, §5, §6
(§8) The results obtained which clearly show the cytotoxicity of the compounds of Examples 5, 6, 7 and 8 against […] tumor cell lines A549, HCT-8, HT-29 and P388-D1, are illustrated in Table 1. (A549 is a human lung cancer cell line; HCT-8 is a human colon cancer cell line; HT-29 is a human colon cancer cell line; and P388-D1 is a mouse leukemia cell line.)

Lewis lung carcinoma = experiment: In vivo activity against Lewis lung carcinoma (subcutaneous); set-up: species or system mouse; conditions: IP days 1-9, tumor weight day 14
Method: Compound A and the compound of Example 8 were also tested against solid tumors, namely Lewis lung carcinoma on the one hand and C-26 colon adenocarcinoma and M5076 ovadan sarcoma on the other. Lewis lung carcinoma was inoculated subcutaneously to flanks of mice on day 0. The compound being tested (Compound A) was administered intraperitoneally (IP) from day 1 to day 9 for a total of nine injections. Tumor weights were measured on day 14 and drug efficacy assessed based on reduction of mean tumor mass (MTM), expressed as the percent ratio of treated (T) to control (C) MTM's. Compounds having % MTM(T/C) values of less than or equal to 40 are considered to have significant activity. These values are shown below in Table 4.

[3] = system: HT-29 human colon cancer cell line; experiment: In vitro cytotoxicity (MTT), HT-29; assay type: cell-based; conditions: HT-29, 72 h, read-out: In Vitro Cytotoxicity (IC50), HT-29, Table 2, ADR: average of two tests
Method: as §1, §2, §3, §4, §5, §6, §8

[4] = system: P388 mouse leukemia cell line; experiment: In vitro cytotoxicity (MTT), P388; assay type: cell-based; conditions: P388, 72 h, read-out: In Vitro Cytotoxicity (IC50)
Method: as §1, §2, §3, §4, §5, §6, §7

M5076 ovarian sarcoma = experiment: In vivo activity against M5076 implanted intraperitoneally (Example 44); set-up: species or system mouse
Method: (§9) The title compound of Example 37 above was tested against solid tumors in mice, using 1,3-bis(2-chloroethyl)-1-nitrosourea (BCNU) as a positive control. The tumor lines were M5076, an ovarian sarcoma implanted intraperitoneally (IP), and C-26, a colon adenocarcinoma, implanted intraperitoneally (IP) and subcutaneously (SC) in separate trials.
(§10) All drugs were administered in 5% aqueous dextrose or other suitable diluent. Drug efficacy was determined by prolonged survival times of the test animals or reduced tumor mass as compared to negative controls. Test groups consisted of 10 mice. Control groups consisted of 20 mice. Animals were of one sex and of similar weight. Prior to testing, the tumor cell lines were propagated in BALB/cj mice. Tumor implants were aliquots of a donor pool brei,
(§11) In the IP trials, the mean survival time (MST) of the groups of mice was determined, not counting animals surviving at the conclusion of the trial, and the mean lifespan comparison value of % MST(T/C) calculated, which value represents the ratio of treated to control group MST's expressed as a percentage.
For M5076 ovarian sarcoma, the tumor was implanted IP into BDF1 mice on day 0. The test compound was administered four times a day IP from day 1 to day 9 for a total of nine days.

[5] = system: C-26 colon adenocarcinoma; experiment: In vivo activity against C-26 implanted subcutaneously (Example 44); set-up: species or system mouse
Method: as §9, §10
For the C-26 SC trial, the tumor was implanted SC into mice on day 0. The test compound was administered four times a day IP from day 1 to day 9 for a total of nine days. BCNU was administered four times a day on days 1, 5, and 9. The mean tumor masses were determined on day 11 and day 21, and the experiment terminated on day 60. The mean tumor mass (MTM) inhibition value of % MTM(T/C) was calculated, which value represents the ratio of treated to control group MTM's expressed as a percentage.

[6] = system: C-26 colon adenocarcinoma; experiment: In vivo activity against C-26 implanted intraperitoneally (Example 44); set-up: species or system mouse
Method: as §9, §10, §11
For C-26 colon adenocarcinoma, the tumor was implanted into CD2 F1 mice, IP and SC in separate trials. For the C-26 IP trial, the tumor was implanted IP on day 0. The test compound were administered four times a day IP from day 1 to day 9 for a total of nine days. BCNU was administered four times a day on days 1, 5 and 9.

[7] = day 11, 10 mg/kg, compound 37 days 1-9, BCNU days 1, 5, 9
[8] = day 21, 10 mg/kg, compound 37 days 1-9, BCNU days 1, 5, 9
[9] = 10 mg/kg, compound 37 days 1-9, BCNU days 1, 5, 9

NC1CCN(c2c(F)cc3c(=O)c(C(=O)O)cn4c3c2Oc2ccccc2-4)C1 (stereo not shown) [Compound A, 1-(3-aminopyrrolidin-1-yl)-2-fluoro-4-oxo-4H-[2,3,4-i,j][1,4]benzoxazine-5-carboxylic acid]
IC50 [1]: 0.12 µg/mL (≈ 0.315 µM)
% MST(T/C) (P388 ascitic leukemia; 6.25 mg/kg IP once daily): 160%
% MST(T/C) (P388 ascitic leukemia; 12.5 mg/kg IP once daily): 165%
% MST(T/C) (P388 ascitic leukemia; 25 mg/kg IP once daily): 170%
% MST(T/C) (P388 ascitic leukemia; 50 mg/kg IP once daily): 180%
solubility (Aqueous solubility): 8.8 mg/mL (≈ 23100 µM)
IC50 (B16F10 mouse melanoma): 0.021 µg/mL (≈ 0.0551 µM)
IC50 [2]: 0.26 µg/mL (≈ 0.682 µM)
Lewis Lung % MTM(T/C) (Lewis lung carcinoma; dose 6.25): 68%
Lewis Lung % MTM(T/C) (Lewis lung carcinoma; dose 12.5): 67%
Lewis Lung % MTM(T/C) (Lewis lung carcinoma; dose 25): 47%
Lewis Lung % MTM(T/C) (Lewis lung carcinoma; dose 50): 41%
IC50 [3]: 0.1 µg/mL (≈ 0.262 µM)
IC50 [4]: 0.019 µg/mL (≈ 0.0498 µM)

C[C@H](N)C(=O)N[C@@H](C)C(=O)NC1CCN(c2c(F)cc3c(=O)c(C(=O)O)cn4c3c2Oc2ccccc2-4)C1 (stereo partly shown) [Example 37, 1-(3-Alanylalanylaminopyrrolidin-1-yl)-2-fluoro-4-oxo-4H-quino[2,3,4-i,j][1,4]benzoxazine-5-carboxylic acid hydrochloride]
solubility (Aqueous solubility): 28.2 mg/mL
test animals that survived the trial (M5076 ovarian sarcoma; 12.5 mg/kg (footnote b)): One of ten test animals survived the trial
% MST(T/C) (M5076 ovarian sarcoma; 12.5 mg/kg IP days 1-9): 215%
MST (M5076 ovarian sarcoma; 12.5 mg/kg IP days 1-9): 44.6
Toxicity due to the test compound (M5076 ovarian sarcoma; 25 mg/kg (footnote a)): Toxicity due to the test compound noted
% MST(T/C) (M5076 ovarian sarcoma; 25 mg/kg IP days 1-9): 45%
MST (M5076 ovarian sarcoma; 25 mg/kg IP days 1-9): 9.3
Toxicity due to the test compound (M5076 ovarian sarcoma; 50 mg/kg (footnote a)): Toxicity due to the test compound noted
% MST(T/C) (M5076 ovarian sarcoma; 50 mg/kg IP days 1-9): 21%
MST (M5076 ovarian sarcoma; 50 mg/kg IP days 1-9): 4.4
Toxicity due to the test compound (M5076 ovarian sarcoma; 100 mg/kg (footnote a)): Toxicity due to the test compound noted
% MST(T/C) (M5076 ovarian sarcoma; 100 mg/kg IP days 1-9): 15%
MST (M5076 ovarian sarcoma; 100 mg/kg IP days 1-9): 3.2
improvement in survival time (M5076 ovarian sarcoma; M5076 IP, in words): significant improvement in survival time
% MTM(T/C) ([5]; day 11, 2.5 mg/kg): 97%
MTM ([5]; day 11, 2.5 mg/kg): 302 mg
% MTM(T/C) ([5]; day 11, 5 mg/kg): 66%
MTM ([5]; day 11, 5 mg/kg): 205 mg
% MTM(T/C) [5, 7]: 24%
MTM [5, 7]: 74 mg
% MTM(T/C) ([5]; day 11, 20 mg/kg): 0%
MTM ([5]; day 11, 20 mg/kg): 0 mg
% MTM(T/C) ([5]; day 21, 2.5 mg/kg): 79%
MTM ([5]; day 21, 2.5 mg/kg): 2617 mg
% MTM(T/C) ([5]; day 21, 5 mg/kg): 75%
MTM ([5]; day 21, 5 mg/kg): 2462 mg
% MTM(T/C) [5, 8]: 41%
MTM [5, 8]: 1336 mg
% MTM(T/C) ([5]; day 21, 20 mg/kg): 5%
MTM ([5]; day 21, 20 mg/kg): 169 mg
activity against tumor implanted subcutaneously ([5]; days 11 and 21, in words): significantly active
% MST(T/C) ([6]; 2.5 mg/kg IP days 1-9): 147%
MST ([6]; 2.5 mg/kg IP days 1-9): 30.3
% MST(T/C) ([6]; 5 mg/kg IP days 1-9): 174%
MST ([6]; 5 mg/kg IP days 1-9): 36.0
% MST(T/C) [6, 9]: 195%
MST [6, 9]: 40.2
test animals that survived the trial ([6]; 20 mg/kg (footnote a)): Three of ten test animals survived the trial
% MST(T/C) ([6]; 20 mg/kg IP days 1-9): 197%
MST ([6]; 20 mg/kg IP days 1-9): 40.7
improvement in survival time ([6]; C-26 IP, in words): significant improvement in survival time
